Source: publication PMC7036753, “Lipidated Analogs of the LL-37-Derived Peptide Fragment KR12—Structural Analysis, Surface-Active Properties and Antimicrobial Activity” (International Journal of Molecular Sciences, 2020)
Converted amounts (≈) assume the structure as drawn. Peptide text beside a SMILES is read from it. * marks the point of attachment. Bz = O=C(c1ccccc1)*

Columns and labels:
[1] = test system: human keratinocytes (HaCaT); assay type: cell-based; settings: HaCaT, MTT, 24 h
Method: The cytotoxicity of test compounds (IC50) was evaluated for human keratinocytes (HaCaT, ATCC) using classic MTT assay on 96-well plates. In this assay, a colorimetric determination of the cell metabolic activity was carried out. Specifically, the color intensity reflects the number of live cells that can be measured spectrophotometrically. […] A day after plating 500 cells per well, a series of concentrations (0.5–500 μg/mL) of the test compounds were added. Dimethyl sulfoxide (DMSO) was used as a control in cells at a final concentration of 1.0% (v/v), which was related to the maximal concentration of the solvent compounds used in the experiment. After 24 h of incubation with test compounds, a medium containing 1 mg/mL of MTT was added up to a final concentration of 0.5 mg/mL and subsequently incubated at 37 °C for 4 h. Then, the medium was aspirated and the formazan product was solubilized with DMSO. The background absorbance at 630 nm was subtracted from that at 570 nm for each well (Epoch, BioTek Instruments, Winooski, VT, USA). Six replicates were conducted for each concentration. All experiments were repeated at least twice and the resulting IC50 values were calculated with a GraFit 7 software (v. 7.0, Erithacus, Berkley, CA, USA).

[2] = test system: S. aureus ATCC 6538 biofilm; assay type: cell-based, Staphylococcus aureus; settings: S. aureus ATCC 6538 biofilm, 24 h
Method: (§1) The MBECs values were determined according to the method reported previously. Briefly, 24-h cultures of S. aureus, namely: S. aureus ATCC 25923, S. aureus ATCC 6538, S. aureus ATCC 33591 (MRSA), S. aureus ATCC 9144 and S. aureus ATCC 12598 were diluted to a concentration of 0.5 × 10^7 CFU/mL and added to the test wells of polystyrene microdilution flat-bottom plates. After 24-h of incubation at 37 °C, the wells were rinsed three times with PBS to remove non-adherent cells. Subsequently, 100 μL of the test compounds over a concentration range 0.5–256 µg/mL were added to each well and incubated again for 24 h at 37 °C. After this period, 20 μL of the resazurin (7-hydroxy-3H-phenoxazin-3-one-10-oxide, 4 mg/mL) solution was added to each well. After 1 h of incubation, the MBECs were read out. The determined values were recorded as the lowest concentration at which the reduction of resazurin (from blue to pink) was lower or equal to 10 ± 0.5% as compared to the positive (100%) and negative (0%) controls. All experiments were performed in triplicate.

[3] = test system: S. aureus ATCC 12598 biofilm; assay type: cell-based, Staphylococcus aureus; settings: S. aureus ATCC 12598 biofilm, 24 h
Method: as §1

[4] = test system: S. aureus ATCC 9144 biofilm; assay type: cell-based, Staphylococcus aureus; settings: S. aureus ATCC 9144 biofilm, 24 h
Method: as §1

[5] = test system: S. aureus ATCC 25923 biofilm; assay type: cell-based, Staphylococcus aureus; settings: S. aureus ATCC 25923 biofilm, 24 h
Method: as §1

[6] = test system: S. aureus ATCC 33591 (MRSA) biofilm; assay type: cell-based, Staphylococcus aureus; settings: S. aureus ATCC 33591 biofilm, 24 h
Method: as §1

Structure (SMILES): CC[C@H](C)[C@H](NC(=O)[C@H](CCCNC(=N)N)NC(=O)[C@H](CCC(N)=O)NC(=O)[C@@H](NC(=O)[C@@H](NC(=O)[C@H](CCCNC(=N)N)NC(=O)[C@H](CCCCN)NC(=O)c1ccccc1)[C@@H](C)CC)C(C)C)C(=O)N[C@@H](CCCCN)C(=O)N[C@@H](CC(=O)O)C(=O)N[C@@H](Cc1ccccc1)C(=O)N[C@@H](CC(C)C)C(=O)N[C@@H](CCCNC(=N)N)C(N)=O [VIII, Benzoic acid-KR12-NH2] (Bz-KRIVQRIKDFLR-NH2)
- IC50 [1]: 40.50 µg/mL (≈ 24.2 µM)
- MBEC [2]: 32 µg/mL
- MBEC [3]: 16 µg/mL
- MBEC [4]: 16 µg/mL
- MBEC [5]: 64 µg/mL
- MBEC [6]: 32 µg/mL
